The results in this text go back to patent publication US7572913B2, “4-substituted piperidine derivatives” (Bioaxone Therapeutique Inc., priority 2004, dated 2009).

Molecules are shown by their SMILES. Several values for one entry are separate records, joined by “and”; a condition that tells them apart may be missing. Equal entries are not always repeated. Where two headings read alike, the source gives them in different places.

For one series, the target named is ROCK-II(h) (Homo sapiens, UniProt O75116). To be noted: for % Control (single replicate) / Activity (% Control): ATP 100 micromolar; for % Control (single replicate): individual replicates; for Activity (% Control): mean of duplicate. As to the method: ROCK II (purchased from Upstate, Lake Placid, N.Y.) activity is assayed in 20 mM MOPS, pH 7.2, 25 mM β-glycerophosphate, 5 mM EGTA, 1 mM sodium orthovanadate, 1 mM dithiothreitol with dephosphorylated myelin basic protein (MBP, 0.2 mg/ml) as substrate with or without addition of a reference Rho kinase inhibitor. Activity assay reactions are performed for 30 min at 30° C. in 50 μl volumes using radiolabeled [32P] ATP (from Perkin-Elmer). The concentrations of ATP and magnesium chloride are 100 μM and 75 mM respectively. Assay reactions are initiated by adding Mg2+/ATP to each reaction mixture and are terminated by spotting 40 μl of each reaction mixture onto phosphocellulose paper (P81 paper, Whatman), followed by washes in 0.75% phosphoric acid to remove ATP followed by drying. The spotted paper is placed in scintillation cocktail and counted to measure 32P incorporation. Radioactivity is measured using a scintillation counter. Percent activity for a particular concentration of inhibitor is calculated as 100*(a−b)/(c−b), where a=cpm (enzyme+inhibitor), b=cpm (autophosphorylation of substrate and kinase) and c=cpm (enzyme−inhibitor). A dose-response chart is prepared for each inhibitor compound evaluated, then an IC50 (inhibitor concentration at 50% inhibition) determination is made as a measure of the potency of the compound as an inhibitor of Rho kinase. A plot of the log of concentration of test inhibitor compound (x axis) and the percent inhibition of kinase activity (y axis) is prepared. […] Experiments are done in duplicate or triplicate. ROCK II and dephosphorylated myelin basic protein (MBP) can be purchased from Upstate (Lake Placid, N.Y.). ATP is from Boehringer Mannheim and [γ-32P] ATP is from Perkin-Elmer. ROCK-II(h) is human ROCK-II.
Chain of ROCK-II(h) (O75116 whole entry): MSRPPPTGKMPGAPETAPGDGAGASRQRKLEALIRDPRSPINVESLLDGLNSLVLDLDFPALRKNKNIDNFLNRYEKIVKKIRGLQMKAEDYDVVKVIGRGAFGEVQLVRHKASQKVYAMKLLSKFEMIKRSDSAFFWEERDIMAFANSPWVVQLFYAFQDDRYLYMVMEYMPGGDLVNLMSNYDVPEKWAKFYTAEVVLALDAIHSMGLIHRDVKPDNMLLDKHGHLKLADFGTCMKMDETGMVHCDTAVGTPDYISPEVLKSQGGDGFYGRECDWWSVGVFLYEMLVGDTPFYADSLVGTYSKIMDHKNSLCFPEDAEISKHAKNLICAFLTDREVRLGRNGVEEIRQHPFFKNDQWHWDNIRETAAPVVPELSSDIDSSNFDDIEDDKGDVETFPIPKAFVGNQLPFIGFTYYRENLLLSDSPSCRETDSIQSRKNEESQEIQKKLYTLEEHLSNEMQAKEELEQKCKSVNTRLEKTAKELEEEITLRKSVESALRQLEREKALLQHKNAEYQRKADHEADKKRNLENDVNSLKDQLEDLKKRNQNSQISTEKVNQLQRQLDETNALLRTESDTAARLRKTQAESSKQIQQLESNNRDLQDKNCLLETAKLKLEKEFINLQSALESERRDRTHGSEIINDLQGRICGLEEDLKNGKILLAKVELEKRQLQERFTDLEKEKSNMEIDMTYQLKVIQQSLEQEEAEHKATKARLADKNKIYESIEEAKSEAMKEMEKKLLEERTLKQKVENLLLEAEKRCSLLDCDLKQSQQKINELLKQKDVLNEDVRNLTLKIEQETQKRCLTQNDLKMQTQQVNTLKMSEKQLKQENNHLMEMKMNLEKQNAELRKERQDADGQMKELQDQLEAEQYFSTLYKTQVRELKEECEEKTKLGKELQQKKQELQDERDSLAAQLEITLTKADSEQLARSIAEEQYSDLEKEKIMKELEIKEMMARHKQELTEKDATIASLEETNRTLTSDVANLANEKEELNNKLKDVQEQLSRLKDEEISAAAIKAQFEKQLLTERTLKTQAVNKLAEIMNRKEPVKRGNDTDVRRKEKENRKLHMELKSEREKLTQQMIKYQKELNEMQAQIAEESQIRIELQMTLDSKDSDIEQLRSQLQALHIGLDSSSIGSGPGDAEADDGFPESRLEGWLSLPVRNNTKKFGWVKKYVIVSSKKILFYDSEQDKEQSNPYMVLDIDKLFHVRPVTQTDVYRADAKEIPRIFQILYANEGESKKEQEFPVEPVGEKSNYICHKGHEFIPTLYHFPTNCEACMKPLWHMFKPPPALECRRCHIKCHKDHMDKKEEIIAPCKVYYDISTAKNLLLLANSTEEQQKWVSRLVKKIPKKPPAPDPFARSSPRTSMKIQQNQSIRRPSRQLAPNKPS
Kinase inhibitors frequently compete with ATP binding and are ATP-competitive. Drug concentration required for 50% inhibition (IC50) depends on the concentration of ATP used in the assays.
An IC50 value for a compound of this invention can be determined from a plot of concentration of compound of this invention versus kinase activity of ROCK-II(h). The IC50 value for a compound of this invention can be expressed in units of micromolar, nanomolar, picomolar, and the like.
In the table, the concentration of the rho kinase inhibitor is micromolar, CPM is counts per minute, and SD is standard deviation. The rho kinase inhibitor activity was tested in duplicate. In each case, the kinase activity is expressed as a percentage of that in control incubations. IC50 values were derived by PRISM at Upstate. ATP concentration was 100 micromolar.

Description for Caco-2 cells: After incubation, samples are taken from the apical and basolateral compartment and the concentration of the test compound is determined by LCMS (liquid chromatography/mass spectroscopy).
Stock cultures are sub-cultured every 7 days when cells have reached 80-90% confluency. Studies are conducted with Caco-2 cells, used between passage 21 to 40. Cells are plated on Transwell™ inserts at a density of 1×10^4 cells/well in 24-well culture plates. Cells are incubated at 37° C. under 5% CO2 atmosphere, and media (MEM Earles medium containing 10% FBS, 0.1 mM non-essential amino acids and 1 mM sodium pyruvate) are changed 3 times per week. Cells are used for permeability studies between 20 to 22 days after seeding. On the day of the assay, cell monolayers are washed 3 times. Each wash consists of aspirating liquid from the apical (A) and basolateral (B) sides, and adding 0.5 and 1 mL, respectively, of fresh Dulbecco's phosphate-buffered saline with Mg^2+ and Ca^2+, pH 7.4 (PBS). After the final wash, a volt-ohm-meter is used to determine the trans-epithelial electrical resistance (TEER), a measure of the integrity of the monolayer. Cells are not be used if the TEER values are less than 200 ohms/cm^2. Working solutions of the test compounds are prepared in PBS. […] For each test compound and standard, apical to basolateral (A to B) and basolateral to apical (B to A) transport is measured. The final volume on the basolateral side is 1 mL; the final volume on the apical side is 0.3 mL. The test compound working solution or radiolabeled standard solution is added to the ‘donor’ side. Blank buffer is added to the ‘acceptor’ side. […] The permeability of each compound and control is measured by sampling 200μL of medium from the acceptor compartment at time zero and following 60 minutes of incubation. […] A 3 mL aliquot of liquid scintillant is added to the vials, and disintegrations per minute (dpm) are determined in a liquid scintillation counter. […] The permeability of Lucifer Yellow is measured by sampling 100 μL of medium from the basolateral compartment following 60 minutes of incubation. […]

Turning to `CC(N)C1CCN(S(=O)(=O)c2cccc3cnccc23)CC1.Cl.Cl` (racemic) [E-23a, (R,S)-N-(5″-isoquinolinesulfonyl)-4-[ethan-1′-amino]piperidine dihydrochloride], the “% Control (single replicate)” value was 96 % Control and 104 % Control on ROCK-II(h) (BA-1049 0.01 μM, dihydrochloride); 109 % Control and 86 % Control on ROCK-II(h) (BA-1049 0.03 μM, dihydrochloride); 86 % Control and 102 % Control at ROCK-II(h) (BA-1049 0.1 μM, dihydrochloride); 62 % Control and 74 % Control on ROCK-II(h) (BA-1049 0.3 μM, dihydrochloride); 45 % Control and 50 % Control at ROCK-II(h) (BA-1049 1 μM, dihydrochloride); 25 % Control and 27 % Control on ROCK-II(h) (BA-1049 3 μM, dihydrochloride). Also, the “% Control (single replicate)” value was 8 % Control and 16 % Control at ROCK-II(h) (BA-1049 10 μM, dihydrochloride); 4 % Control on ROCK-II(h) (BA-1049 30 μM); 0 % Control and 5 % Control at ROCK-II(h) (BA-1049 100 μM, dihydrochloride). The “Activity (% Control)” value on ROCK-II(h) (BA-1049 0.01 μM) came to 100 % Control; at ROCK-II(h) (BA-1049 0.03 μM), 98 % Control; at ROCK-II(h) (BA-1049 0.1 μM) it was 94 % Control; at ROCK-II(h) (BA-1049 0.3 μM), 68 % Control; on ROCK-II(h) (BA-1049 1 μM), 48 % Control; at ROCK-II(h) (BA-1049 3 μM), 26 % Control. The results for the “Activity (% Control)” value on ROCK-II(h) (BA-1049 10 μM), at ROCK-II(h) (BA-1049 30 μM) and at ROCK-II(h) (BA-1049 100 μM) were 12 % Control, 4 % Control and 3 % Control, respectively. Besides, the 50% inhibitory concentration (IC50) on ROCK-II(h) (read-out: IC50, inhibition of ROCK-II(h), ATP 100 μM, duplicate, derived by PRISM) was determined as 0.791 µM. Besides, the “B − A/A − B Papp ratio” value in the series on Caco-2 cells (Caco-2 monolayer) is reported as 1.31. The “permeability (in words)” value in the series on Caco-2 cells (Caco-2 permeability assay) is “good permeability”.
